Results reported in PubChem BioAssay (NCI).
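Each compound was tested at five concentrations against cells in 96-well plates for 48 hours. The concentration for full growth arrest is given as TGI.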

How the values were obtained:
Assay in all cases: NCI anticancer screen, dose series, 48 h
[1] = test system: HCT-116 colon
[2] = test system: IGROV1 ovarian
[3] = test system: M14 melanoma
[4] = test system: MDA-MB-435
[5] = test system: MDA-N
[6] = test system: NCI-H23 lung
[7] = test system: PC-3 prostate
[8] = test system: SF-268 CNS
[9] = test system: SK-MEL-2 melanoma
[10] = test system: SNB-19 CNS

SMILES | TGI [1] | TGI [2] | TGI [3] | TGI [4] | TGI [5] | TGI [6] | TGI [7] | TGI [8] | TGI [9] | TGI [10]
CC(C)CC1N=C(OCc2ccccc2)OC1=O (stereo not given) | > 100 µM | > 100 µM | > 100 µM | > 100 µM | > 100 µM | > 100 µM | > 100 µM | > 100 µM | > 100 µM | > 100 µM
COc1ccc(C=O)cc1OS(=O)(=O)C(F)(F)C(F)(F)C(F)(F)C(F)(F)F | > 70.4 µM | > 67.5 µM | > 80.5 µM | 48.9 µM | 44.7 µM | > 100 µM | > 100 µM | > 100 µM | 43.9 µM | > 100 µM
[O-][N+]1=C2CCC/C(=N/O)C2(O)C2CCCCC21N1CCOCC1 (stereo not given) | > 100 µM | > 100 µM | > 100 µM | > 100 µM | > 100 µM | > 100 µM | > 100 µM | > 100 µM | > 100 µM | > 100 µM
CC(C)c1c(O[Si](C(C)C)(C(C)C)C(C)C)cc2c(c1O)CC[C@H]1C(C)(C)CCC[C@]21C | > 100 µM | > 100 µM | > 100 µM | > 100 µM | > 100 µM | > 100 µM | > 100 µM | > 100 µM | > 100 µM | > 100 µM
S=C(S)NCCN1CCNCC1 | > 100 µM | > 100 µM | > 100 µM | > 100 µM | > 100 µM | > 100 µM | > 100 µM | > 100 µM | > 100 µM | > 100 µM
C=C1CC[C@@H]2[C@](C)(COC(=O)CCC(=O)O)CCC[C@@]2(C)[C@@H]1CCC1=CC(=O)OC1 | > 100 µM | > 100 µM | > 100 µM | > 100 µM | > 100 µM | > 100 µM | > 100 µM | > 100 µM | > 100 µM | > 100 µM
CON[N+]([O-])=NC(C)C | > 100 µM | > 100 µM | > 100 µM | > 100 µM | > 100 µM | > 100 µM | > 100 µM | > 100 µM | > 100 µM | > 100 µM
CN1CCc2c(sc3ncn(Nc4ccc(F)cc4)c(=N)c23)C1 | > 100 µM | > 100 µM | > 100 µM | > 100 µM | > 100 µM | > 100 µM | > 100 µM | > 100 µM | > 100 µM | > 100 µM
O=C1c2ccccc2C(=O)N1NC1=NCCN1 | > 100 µM | > 100 µM | > 100 µM | > 100 µM | > 100 µM | > 100 µM | > 100 µM | > 100 µM | > 100 µM | > 100 µM
CC1CC(=O)Nc2ccccc2N1C(=O)C1CC1 (stereo not given) | > 100 µM | > 100 µM | > 100 µM | > 100 µM | > 100 µM | > 100 µM | > 100 µM | > 100 µM | > 100 µM | > 100 µM
CCN(CC)CCSc1c(C(C)=O)c(=O)n(-c2ccccc2)c(=S)n1-c1ccccc1 | 6.09 µM | 27.2 µM | 4.12 µM | 21.2 µM | 20.9 µM | 33.2 µM | 12 µM | 35.8 µM | 31.6 µM | 55.8 µM
NC1NCCC(=O)N1CCc1c[nH]c2ccccc12 (stereo not given) | 26.5 µM | 43.1 µM | 33.3 µM | 30.7 µM | 34.3 µM | 38.6 µM | 44.1 µM | 46.4 µM | 35.5 µM | > 100 µM
CC1(C)[C@H]2Cc3cc4nc5ccccn5c4cc3[C@@H]1C2 | 33 µM | 43 µM | 38.2 µM | 36.7 µM | 33.4 µM | 32.4 µM | 41.5 µM | 34.5 µM | 32 µM | 31.8 µM
COC(=O)Cc1c(C2C(CC(=O)OC)c3ccccc3N2C2OC(CO)C(O)C(O)C2O)[nH]c2ccccc12 (stereo not given) | > 100 µM | > 100 µM | > 100 µM | > 100 µM | > 100 µM | > 100 µM | > 100 µM | > 100 µM | > 100 µM | > 100 µM
COC(=O)[C@H](Cc1ccccc1)NC(=O)N(CCNC(=O)OC(C)(C)C)c1ccccc1 | > 100 µM | > 100 µM | > 100 µM | > 100 µM | > 100 µM | > 100 µM | > 100 µM | > 100 µM | > 100 µM | > 100 µM
COc1cc(OC)c(/C=N\Nc2nc3ccccc3c(=O)n2-c2ccccc2)c(OC)c1 | 40.6 µM | > 100 µM | 84.6 µM | > 72.7 µM | 43.9 µM | > 100 µM | 53.7 µM | > 100 µM | 64 µM | 78.6 µM
